No end group written: not given here. 2,3‑bisacyloxypropyl = 2,3-bisacyloxypropyl group on the Cys sulfur
Legend:
[1] = tested on: TLR8 and TLR7; assay: TLR agonism and TLR8 selectivity (TLR-mediated activity); assay type: cell-based; details: for concentration inducing TLR8 activity as fraction of that necessary to induce TLR7-mediated activity: TLR8 vs TLR7 selectivity; for TLR8 selectivity: named as examples of TLR8-selective compounds
Excerpt: The TLR agonism for a particular compound may be assessed in any suitable manner.
Conversely, a compound may be identified as not acting as an agonist of a specified TLR if, when used to perform an assay designed to detect biological activity mediated by the specified TLR, the compound fails to elicit a threshold increase in the biological activity. […] An assay may or may not be performed in conjunction with the appropriate control.
A significant degree may be, for example, inducing activity mediated by one TLR (e.g., TLR8) when administered at half the concentration necessary to induce activity through another TLR (e.g., TLR7).
Assays employing HEK293 cells transfected with an expressible TLR structural gene may use a threshold of, for example, at least a three-fold increase in a TLR-mediated biological activity (e.g., NFκB activation) when the compound is provided at a concentration of, for example, from about 1 μM to about 10 μM for identifying a compound as an agonist of the TLR transfected into the cell. However, different thresholds and/or different concentration ranges may be suitable in certain circumstances. Also, different thresholds may be appropriate for different assays.

[2] = tested on: TLR8 and TLR7; details: cited from earlier work
[3] = tested on: neonatal myeloid dendritic cells (mDCs); assay: CD40 expression on myeloid dendritic cells in whole blood (flow cytometry); assay type: cell-based, human; details: imiquimod 250 μM, resiquimod 50 μM, 19 hours; FIGS. 15A-15D
Method: After lysis of red blood cells and fixation, mDCs were identified as lint-/HLA-DR+/CD11c+ cells using four color flow cytometry (BD BioSciences) and CD40 was measured using a PE-conjugated mAb.
Newborn cord or adult peripheral blood was incubated with TLR agonists at 37° C. for 19 hours. mDCs were identified by flow cytometry and the level of expression of CD40 was measured using a PE-conjugated mAb.
CD40 expression on mDCs was studied in whole newborn cord blood, in comparison to those of adult peripheral blood, using four-color flow cytometry (BD Biosciences). mDCs were identified as lineage 1-/HLA-DR+/CD11c+ cells. Upregulation of surface CD40 expression was measured using a phycoerythrin-conjugated anti-CD40 mAb.

[4] = tested on: newborn cord blood and adult peripheral blood; assay: TLR ligand-induced TNF-α release in whole blood ex vivo (ELISA); assay type: cell-based, human; details: for ligand-induced TNF-α release in newborn cord blood compared with adult peripheral blood: 5-hour incubation, FIGS. 1A-1E
Method: Peripheral blood was collected from healthy adult volunteers (N=26 individual volunteers; mean age 27 years; 45% male, 55% female) and newborn cord blood (N=63; mean gestational age 39 weeks; 43% male, 57% female) collected immediately after cesarean section delivery (epidural anesthesia) of the placenta or from the umbilical cord immediately after vaginal birth but prior to delivery of the placenta. Births at which antibiotics were administered during labor and/or delivery, and births to HIV-positive mothers were excluded. Human experimentation guidelines of the US Department of Health and Human Services and the Brigham & Women's Hospital were observed, following protocols approved by the local Institutional Review Board. Blood was anticoagulated with 129 mM sodium citrate (Becton Dickinson, Franklin Lakes, N.J.). Hemocytes were collected by centrifugation of blood, followed by washing three times with Hank's Balanced Salt Solution (HBSS) buffer without magnesium or calcium (Gibco BRL, Grand Island, N.Y.) and then resuspension in either autologous or heterologous 100% plasma.
TLR ligands included the synthetic triacylated BLP (tBLP) Pam3-CSSNA (Bachem Bioscience, King of Prussia, Pa.) corresponding to the N-terminus of a BLP from E. coli B/r (Biesert et al. 1987. Eur J Biochem 162:651), the synthetic diacylated BLP macrophage-activating lipopeptide-2 (MALP; S-(2,3-bisAcyloxypropyl)-cysteine-[…] (SEQ ID NO: 5); Alexis Biochemicals, Lausen, Switzerland) from Mycoplasma fermentans (Muhlradt et al. 1997. J Exp Med. 185:1951), ultrapure Re 595 LPS from Salmonella minnesota (List Biologicals, Campbell, Calif.), and the IRM compounds imiquimod (3M Pharmaceuticals, Northridge, Calif.), and resiquimod (InvivoGen, San Diego, Calif.). Specificity of individual TLR ligands for their cognate receptors was confirmed using either NF-kB luciferase reporter and TLR co-transfected Human Embryonic Kidney (HEK) 293 cells or a neutralizing mAb to TLR2 (Levy, O. et al. 2003. Infect Immun 71:6344), as previously described.
After incubation of TLR ligands in blood or monocyte suspensions for 5 hours at 37° C. with end-over-end rotation, samples were diluted with five volumes of ice-cold RPMI medium (Gibco BRL) and centrifuged at 1,000×g at 4° C. for 5 minutes. The supernatant was recovered and stored at −20° C. until assay of TNF-α by ELISA (R&D Systems, Minneapolis, Minn.).
TLR ligand-induced TNF-α release in whole human blood ex vivo as described above in Example 1. The single stranded ribonucleic acid (ssRNA) tested in this example was ssRNA40/LyoVec purchased from InvivoGen (San Diego, Calif.) comprised of single-stranded GU-rich oligonucleotide (5′-GsCsCsCsGsUsCsUsGsUsUsGsUsGsUsGsAsCsUsC-3′ (SEQ ID NO:1); where “s” depicts a phosphothioate linkage complexed with the cationic lipid LyoVec that protects the RNA from degradation and enhance is uptake by immune cells. The guanosine analog loxoribine (TLR7 ligand) was purchased from InvivoGen.

| Compound | concentration inducing TLR8 activity as fraction of that necessary to induce TLR7-mediated activity [1] | further results |
| --- | --- | --- |
| CC(C)c1nc2c(N)nc3ccccc3c2s1 [2-(1-methylethyl)thiazolo[4,5-c]quinolin-4-amine] | less than one-fifth |  |
| CC(C)Cc1nc2c(N)nc3ccccc3c2s1 [2-(2-methylpropyl)thiazolo[4,5-c]quinolin-4-amine] | less than one-fifth |  |
| CCCCc1nc2c(N)nc3cccnc3c2s1 [2-butylthiazolo[4,5-c][1,5]naphthyridin-4-amine] |  | TLR8 selectivity [1]: TLR8-selective |
| CCCc1nc2c(N)nc3cccnc3c2s1 [2-propylthiazolo[4,5-c][1,5]naphthyridin-4-amine] | less than one-fifth |  |
| CCCc1nc2c(N)nc3ccc(N)cc3c2s1 [2-propylthiazolo[4,5-c]quinoline-4,8-diamine] |  | TLR8 selectivity [1]: TLR8-selective |
| CCCc1nc2c(N)nc3cc(OCCOCCCl)ccc3c2s1 [7-[2-(2-chloroethoxy)ethoxy]-2-propyl[1,3]thiazolo[4,5-c]quinolin-4-amine] | less than one-fifth |  |
| CCCc1nc2c(N)nc3cc(F)ccc3c2s1 [7-fluoro-2-propylthiazolo[4,5-c]quinolin-4-amine] | less than one-fifth |  |
| CCCc1nc2c(N)nc3ccc(C)cc3c2s1 [8-methyl-2-propylthiazolo[4,5-c]quinolin-4-amine] | less than one-fifth |  |
| CCOCc1nc2c(N)nc3c(c2n1CC(C)(C)O)CCCC3 [IRM3, 4-amino-2-(ethoxymethyl)-α,α-dimethyl-6,7,8,9-tetrahydro-1H-imidazo[4,5-c]quinoline-1-ethanol] |  | TLR agonism (which TLR) [2]: agonist of both TLR7 and TLR8 |
| CCCc1nc2c(N)nc3cc(-c4cccc(NS(C)(=O)=O)c4)ccc3c2s1 [N-[3-(4-amino-2-propylthiazolo[4,5-c]quinolin-7-yl)phenyl]methanesulfonamide] | less than one-fifth |  |
| CCCc1nc2c(N)nc3cc(OCCCNS(=O)(=O)c4cccc5c(N(C)C)cccc45)ccc3c2s1 [N-{3-[(4-amino-2-propyl[1,3]thiazolo[4,5-c]quinolin-7-yl)oxy]propyl}-5-(dimethylamino)naphthalene-1-sulfonamide] | one half to about one-fifth |  |
| CCCc1nc2c(N)nc3cc(OCCCCCCNS(C)(=O)=O)ccc3c2s1 [N-{6-[(4-amino-2-propyl[1,3]thiazolo[4,5-c]quinolin-7-yl)oxy]hexyl}methanesulfonamide] | less than one-fifth |  |
| CC(C)Cn1cnc2c(N)nc3ccccc3c21 [imiquimod] |  | upregulation of CD40 expression in neonatal mDCs [3]: does not; ligand-induced TNF-α release in newborn cord blood compared with adult peripheral blood [4]: impaired; TLR agonism (which TLR) [2]: agonist at TLR7 receptors |
| CCOCc1nc2c(N)nc3ccccc3c2n1CC(C)(C)O [resiquimod] |  | potency relative to imiquimod ([1]; FIG. 11): ~100 fold |
| CCCc1nc2c(N)nc3cc(OCCNC(=O)OC(C)(C)C)ccc3c2s1 [tert-butyl 2-[(4-amino-2-propyl[1,3]thiazolo[4,5-c]quinolin-7-yl)oxy]ethylcarbamate] | one half to about one-fifth |  |
| CCCc1nc2c(N)nc3cc(OCCOCCNC(=O)OC(C)(C)C)ccc3c2s1 [tert-butyl 2{-2-[(4-amino-2-propyl[1,3]thiazolo[4,5-c]quinolin-7-yl)oxy]ethoxy}ethylcarbamate] | less than one-fifth |  |
| CCCc1nc2c(N)nc3cc(OCCCNC(=O)OC(C)(C)C)ccc3c2s1 [tert-butyl 3-[(4-amino-2-propyl[1,3]thiazolo[4,5-c]quinolin-7-yl)oxy]propylcarbamate] | less than one-fifth |  |
| Pam3-CSSNA [tBLP] |  | ligand-induced TNF-α release in newborn cord blood compared with adult peripheral blood [4]: impaired; ligand-induced TNF-α release in cord blood compared with adult controls ([4]; cord blood from both Caesarian-section and vaginal deliveries, 5 hours, FIGS. 2A-2C): impaired; magnitude and kinetics of ligand-induced TNF-α release in newborn cord vs. adult peripheral blood ([4]; time course, FIGS. 3A-3C): lower magnitude, but similar kinetics |
| S-(2,3-bisAcyloxypropyl)-cysteine-GNNDESNISFKEK (C(2,3‑bisacyloxypropyl)GNNDESNISFKEK; also: acyl groups not given here) [MALP, synthetic diacylated BLP from Mycoplasma fermentans (TLR2/6)] |  | ligand-induced TNF-α release in newborn cord blood compared with adult peripheral blood [4]: impaired |
